From PubChem BioAssay (NCI)
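Results reflect a 48-hour exposure of cells in 96-well plates to compound at five concentrations. GI50: concentration for 50% inhibition of growth. TGI marks complete inhibition of growth.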

Tests used:
Assay in all cases: NCI tumour cell line growth inhibition, 48 h
HT29 colon = tested on: HT29 colon
IGROV1 ovarian = tested on: IGROV1 ovarian
K-562 leukemia = tested on: K-562 leukemia
U251 CNS = tested on: U251 CNS
HCC-2998 colon = tested on: HCC-2998 colon
A549 NSCLC = tested on: A549 NSCLC
786-0 renal = tested on: 786-0 renal
SF-268 CNS = tested on: SF-268 CNS
CAKI-1 renal = tested on: CAKI-1 renal
MDA-MB-435 = tested on: MDA-MB-435

Row | SMILES | TGI (HT29 colon) [µM] | TGI (IGROV1 ovarian) [µM] | TGI (K-562 leukemia) [µM] | TGI (U251 CNS) [µM] | TGI (HCC-2998 colon) [µM] | TGI (A549 NSCLC) [µM] | TGI (786-0 renal) [µM] | TGI (SF-268 CNS) [µM] | TGI (CAKI-1 renal) [µM] | GI50 (HT29 colon) [µM] | GI50 (SF-268 CNS) [µM] | GI50 (IGROV1 ovarian) [µM] | GI50 (U251 CNS) [µM] | GI50 (MDA-MB-435) [µM] | TGI (MDA-MB-435) [µM] | GI50 (HCC-2998 colon) [µM] | GI50 (CAKI-1 renal) [nM] | GI50 (A549 NSCLC) [µM] | GI50 (786-0 renal) [µM] | GI50 (K-562 leukemia) [nM]
1 | CC[P+](C)(Cc1ccccc1)c1ccccc1 (centres undefined) | > 100 | > 100 | > 100 | > 100 | > 100 | > 100 | > 100 | – | – | – | – | – | – | – | – | – | – | – | – | –
2 | FC(F)(F)C1(Cl)C(c2ccccc2)=C1c1ccccc1 | 29.3 | 29.5 | 26.2 | 28.2 | 31.8 | 28.9 | 31.1 | 30.8 | 25.3 | – | – | – | – | – | – | – | – | – | – | –
3 | CCC(C)CN1C(=O)NC(C)(Cc2ccccc2)C1=O (centres undefined) | > 100 | – | – | > 100 | > 100 | > 100 | > 100 | > 100 | > 100 | – | – | – | – | – | – | – | – | – | – | –
4 | CC1=CC2CC(C)=C(CC[C@]3(C)CC[C@H]([C@@H](C)C(=O)O)OO3)C(C)(C)C2CC1 (some centres undefined) | 0.429 | 0.453 | 0.471 | 1.01 | 0.818 | 1.06 | 4.78 | 3.24 | 2.76 | – | – | – | – | – | – | – | – | – | – | –
5 | COC(=O)[C@@H](NC(=O)NC(=O)NC(=O)CI)C(C)C | 4.03 | 13.9 | – | 31.1 | 27.4 | 41.5 | 23.5 | 32.7 | 2.73 | 2.01 | 15.1 | 3.87 | 17.3 | 9.97 | 21.7 | 13.4 | 1410 | 22.4 | 11.4 | –
6 | CC1=NN(C(=O)c2ccccc2O)C(=O)/C1=C/c1ccc([N+](=O)[O-])cc1 | > 100 | – | – | > 100 | – | > 100 | > 100 | > 100 | > 30.8 | 4.22 | 0.444 | 0.44 | 0.516 | – | > 100 | – | 549 | 0.357 | 0.774 | 216
7 | COc1ccc(S(=O)(=O)NC(C)C(=O)O)cc1 (centres undefined) | > 100 | > 100 | > 100 | > 100 | – | > 100 | > 100 | > 100 | > 100 | – | – | – | – | – | – | – | – | – | – | –
8 | CN(C)c1ccc2c(c1)C(=O)N(OS(=O)(=O)c1ccc([N+](=O)[O-])cc1)C2=O | 47.6 | 43 | > 100 | 35.1 | 60.3 | > 100 | 47.9 | 80.8 | 54.2 | – | – | – | – | – | – | – | – | – | – | –
9 | CC1=CCC[C@@]2(C)C(CC[C@@H]2C(C)/C=C/C(C)C)c2ccc(cc2C(=O)O)C[C@@H](O)CC1 (some centres undefined) | 17.6 | 27.9 | 26.4 | 16 | 23.5 | 20.3 | 27.9 | 29.7 | 32.9 | – | – | – | – | – | – | – | – | – | – | –
10 | Cc1ccc(C)c(NC(=O)C(=O)CC(=O)C2CCOC2=O)c1 (centres undefined) | > 100 | > 100 | > 100 | > 100 | – | > 100 | > 100 | > 100 | > 100 | – | – | – | – | – | – | – | – | – | – | –
11 | CCC1(C)NN=c2s/c(=C/c3ccc(OC)cc3)c(=O)n2N1 (centres undefined) | > 100 | > 100 | > 100 | > 100 | > 100 | > 100 | > 100 | > 100 | > 100 | – | – | – | – | – | – | – | – | – | – | –
12 | N#C/C(=C\c1ccccc1O)C(N)=O | > 100 | > 100 | > 100 | > 100 | > 100 | > 100 | > 100 | > 100 | > 100 | – | – | – | – | – | – | – | – | – | – | –
13 | CC(C)(C)OC(=O)NCCNC1=CC(=O)c2nc3ccccc3c3ccnc1c23 | 43.8 | 77.3 | > 100 | 65 | – | > 100 | > 100 | 77.1 | 72.3 | 17.9 | 18.7 | 24.6 | 18.8 | 15.7 | 37.7 | – | 28400 | 18.4 | 28.5 | 131
14 | CC(C)=CCN=C(N)N | > 100 | > 100 | – | > 100 | > 100 | > 100 | > 100 | > 100 | > 100 | – | – | – | – | – | > 100 | – | – | – | – | –
15 | COC(=O)Cc1cc(OC)c(OC)cc1Br | > 100 | – | > 100 | > 100 | > 100 | > 100 | > 100 | > 100 | > 100 | – | – | – | – | – | – | – | – | – | – | –
16 | CCOc1ccccc1NC(=O)CCC(=O)OC | > 100 | > 100 | > 87.8 | > 71.1 | > 100 | > 100 | > 100 | > 100 | > 100 | – | – | – | – | – | – | – | – | – | – | –
17 | O=C(CC1=Nc2nnc(-c3nnc4n3C(=O)C(CC(=O)c3cccnc3)=N4)n2C1=O)c1cccnc1 | > 100 | > 100 | > 100 | > 100 | > 100 | > 100 | > 100 | > 100 | > 100 | – | – | – | – | – | – | – | – | – | – | –
18 | COc1ccc(/C(=N/NC(N)=O)C2(O)C(=O)Nc3ccc([N+](=O)[O-])cc32)cc1 (centres undefined) | 42.2 | 94.7 | 58.8 | > 10 | > 100 | > 100 | 30.2 | 40.6 | 57.7 | – | – | – | – | – | – | – | – | – | – | –
19 | N#Cc1cccc(N2C(=O)c3c(c(-c4ccccc4)c(-c4ccc(Sc5ccc(-c6c(-c7ccccc7)c7c(c(-c8ccccc8)c6-c6ccccc6)C(=O)N(c6cccc(C#N)c6)C7=O)cc5)cc4)c(-c4ccccc4)c3-c3ccccc3)C2=O)c1 | > 100 | > 100 | > 100 | 54.2 | > 100 | > 100 | > 100 | > 100 | – | – | – | – | – | – | – | – | – | – | – | –
20 | Cc1cccc(C(=O)c2cccc3ccccc23)c1C(=O)O | > 100 | > 100 | > 100 | > 100 | – | > 100 | > 100 | > 100 | – | – | – | – | – | – | – | – | – | – | – | –
21 | COc1cccc([C@H]2CC(=O)c3cc4c(cc3N2)OCO4)c1 | 0.425 | – | – | > 100 | 0.115 | > 100 | > 100 | > 100 | > 100 | – | 4.7 | – | 0.0491 | 0.0177 | 0.044 | 0.0283 | 151 | 0.125 | 0.0789 | –
